pIC50: −log10 of the molar value.
How the values were obtained:
[1] = target: T1, glucosylceramide synthase (GCS) (Homo sapiens, UniProt Q16739); test: GCS enzyme inhibition assay (A549 cell lysate, NBD C6-ceramide, HPLC fluorescence); assay type: biochemical; details: inhibitory activity against GCS, 37° C., 90 minutes
T1 construct: The obtained supernatant was used; host or cells: A549 cells (lysate supernatant after sonication)
T1 sequence (Q16739 1-394): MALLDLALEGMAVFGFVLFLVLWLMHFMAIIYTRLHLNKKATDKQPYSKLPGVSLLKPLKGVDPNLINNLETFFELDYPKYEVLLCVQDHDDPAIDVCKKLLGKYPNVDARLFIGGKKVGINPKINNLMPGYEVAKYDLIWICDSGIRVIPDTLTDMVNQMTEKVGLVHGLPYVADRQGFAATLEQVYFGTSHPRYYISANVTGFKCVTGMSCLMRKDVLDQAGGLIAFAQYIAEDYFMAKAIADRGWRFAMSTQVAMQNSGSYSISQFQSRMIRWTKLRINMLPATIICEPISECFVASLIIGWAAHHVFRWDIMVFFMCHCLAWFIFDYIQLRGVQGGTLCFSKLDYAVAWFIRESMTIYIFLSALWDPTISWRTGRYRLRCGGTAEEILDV
Summary of the method: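 A549 cell lysate (50 mM HEPES pH 7.3) served as GCS source; reactions ran 90 min at 37° C, were stopped with chloroform/methanol and lipids extracted. Activity taken as GlcCer/(Cer+GlcCer) peak area, normalised between DMSO and ibiglustat controls.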

[2] = tested on: GM1 production in Jurkat cells; test: cells; assay type: cell-based; details: Homo sapiens, Jurkat, 72 h

Compound	pIC50 [1]	pIC50 [2]
Cn1ncc2c(-c3ccc4c(c3)OCC(C)(C)C4NC(=O)O[C@@H]3CN4CCC3CC4)cccc21 (stereo partly drawn) [Example 159, (S)-quinuclidin-3-yl (3,3-dimethyl-7-(1-methyl-1H-indazol-4-yl)chroman-4-yl)carbamate]	9.24	9.26
CC1(C)COc2cc(-c3cccc4ccncc34)ccc2C1NC(=O)O[C@@H]1CN2CCC1CC2 (stereo partly drawn) [Example 160, (S)-quinuclidin-3-yl (7-(isoquinolin-8-yl)-3,3-dimethylchroman-4-yl)carbamate]	9.28	9.27
CC1(C)COc2cc(-c3ccc(C4CC4)cc3)ccc2C1NC(=O)O[C@@H]1CN2CCC1CC2 (stereo partly drawn) [Example 161, (S)-quinuclidin-3-yl (7-(4-cyclopropylphenyl)-3,3-dimethylchroman-4-yl)carbamate]	9.42	9.74
COc1ccccc1-c1ccc2c(c1)OCC(C)(C)C2NC(=O)O[C@@H]1CN2CCC1CC2 (stereo partly drawn) [Example 162, (S)-quinuclidin-3-yl (7-(2-methoxyphenyl)-3,3-dimethylchroman-4-yl)carbamate]	9.28	10.70
CC1(C)COc2cc(-c3ccc4c(c3)CCCO4)ccc2C1NC(=O)O[C@@H]1CN2CCC1CC2 (stereo partly drawn) [Example 163, (S)-quinuclidin-3-yl (3′,3′-dimethyl-[6,7′-bichroman]-4′-yl)carbamate]	9.23	9.30
CC1(C)COc2cc(-c3cc(Cl)cc(C(F)(F)F)c3)ccc2C1NC(=O)O[C@@H]1CN2CCC1CC2 (stereo partly drawn) [Example 164, (S)-quinuclidin-3-yl (7-(3-chloro-5-(trifluoromethyl)phenyl)-3,3-dimethylchroman-4-yl)carbamate]	8.80	8.49
CC1(C)COc2cc(-c3cccc4cccnc34)ccc2C1NC(=O)O[C@@H]1CN2CCC1CC2 (stereo partly drawn) [Example 165, (S)-quinuclidin-3-yl (3,3-dimethyl-7-(quinolin-8-yl)chroman-4-yl)carbamate]	9.09	9.18
COc1cccc(-c2ccc3c(c2)OCC(C)(C)C3NC(=O)O[C@@H]2CN3CCC2CC3)c1 (stereo partly drawn) [Example 166, (S)-quinuclidin-3-yl (7-(3-methoxyphenyl)-3,3-dimethylchroman-4-yl)carbamate]	9.51	10.15
CC(C)Oc1ccc(-c2ccc3c(c2)OCC(C)(C)C3NC(=O)O[C@@H]2CN3CCC2CC3)cc1Cl (stereo partly drawn) [Example 167, (S)-quinuclidin-3-yl (7-(3-chloro-4-isopropoxyphenyl)-3,3-dimethylchroman-4-yl)carbamate]	9.15	8.48
COc1cccc(OC)c1-c1ccc2c(c1)OCC(C)(C)C2NC(=O)O[C@@H]1CN2CCC1CC2 (stereo partly drawn) [Example 168, (S)-quinuclidin-3-yl (7-(2,6-dimethoxyphenyl)-3,3-dimethylchroman-4-yl)carbamate]	8.85	8.69
CC1(C)COc2cc(-c3ccccc3Cl)ccc2C1NC(=O)O[C@@H]1CN2CCC1CC2 (stereo partly drawn) [Example 169, (S)-quinuclidin-3-yl (7-(2-chlorophenyl)-3,3-dimethylchroman-4-yl)carbamate]	9.43	9.60
CC1(C)COc2cc(-c3cccc(C#N)c3)ccc2C1NC(=O)O[C@@H]1CN2CCC1CC2 (stereo partly drawn) [Example 170, (S)-quinuclidin-3-yl (7-(3-cyanophenyl)-3,3-dimethylchroman-4-yl)carbamate]	9.38	8.23
CN(C)c1cc(-c2ccc3c(c2)OCC(C)(C)C3NC(=O)O[C@@H]2CN3CCC2CC3)ccc1F (stereo partly drawn) [Example 171, (S)-quinuclidin-3-yl (7-(3-(dimethylamino)-4-fluorophenyl)-3,3-dimethylchroman-4-yl)carbamate]	9.10	8.28
CC1(C)COc2cc(-c3ccc4c(c3)OCCO4)ccc2C1NC(=O)O[C@@H]1CN2CCC1CC2 (stereo partly drawn) [Example 172, (S)-quinuclidin-3-yl (7-(2,3-dihydrobenzo[b][1,4]dioxin-6-yl)-3,3-dimethylchroman-4-yl)carbamate]	9.43	8.72
CC1(C)COc2cc(-c3cccc4cc[nH]c34)ccc2C1NC(=O)O[C@@H]1CN2CCC1CC2 (stereo partly drawn) [Example 173, (S)-quinuclidin-3-yl (7-(1H-indol-7-yl)-3,3-dimethylchroman-4-yl)carbamate]	8.93	8.53
CC(C)c1ccc(-c2ccc3c(c2)OCC(C)(C)C3NC(=O)O[C@@H]2CN3CCC2CC3)cc1 (stereo partly drawn) [Example 174, (S)-quinuclidin-3-yl (7-(4-isopropylphenyl)-3,3-dimethylchroman-4-yl)carbamate]	9.46	8.86
CC1(C)COc2cc(-c3ccc(F)c(C(F)(F)F)c3)ccc2C1NC(=O)O[C@@H]1CN2CCC1CC2 (stereo partly drawn) [Example 175, (S)-quinuclidin-3-yl (7-(4-fluoro-3-(trifluoromethyl)phenyl)-3,3-dimethylchroman-4-yl)carbamate]	9.15	8.66
COc1cccc(-c2ccc3c(c2)OCC(C)(C)C3NC(=O)O[C@@H]2CN3CCC2CC3)c1Cl (stereo partly drawn) [Example 176, (S)-quinuclidin-3-yl (7-(2-chloro-3-methoxyphenyl)-3,3-dimethylchroman-4-yl)carbamate]	9.23	8.49
COc1cc(-c2ccc3c(c2)OCC(C)(C)C3NC(=O)O[C@@H]2CN3CCC2CC3)ccc1Cl (stereo partly drawn) [Example 177, (S)-quinuclidin-3-yl (7-(4-chloro-3-methoxyphenyl)-3,3-dimethylchroman-4-yl)carbamate]	8.86	8.01
CC1(C)COc2cc(-c3cccc4cn[nH]c34)ccc2C1NC(=O)O[C@@H]1CN2CCC1CC2 (stereo partly drawn) [Example 178, (S)-quinuclidin-3-yl (7-(1H-indazol-7-yl)-3,3-dimethylchroman-4-yl)carbamate]	8.94	8.36
CC1(C)COc2cc(-c3cc(Cl)cc(Cl)c3)ccc2C1NC(=O)O[C@@H]1CN2CCC1CC2 (stereo partly drawn) [Example 179, (S)-quinuclidin-3-yl (7-(3,5-dichlorophenyl)-3,3-dimethylchroman-4-yl)carbamate]	8.88	8.35
CC1(C)COc2cc(-c3cnn(Cc4ccccc4)c3)ccc2C1NC(=O)O[C@@H]1CN2CCC1CC2 (stereo partly drawn) [Example 180, (S)-quinuclidin-3-yl (7-(1-benzyl-1H-pyrazol-4-yl)-3,3-dimethylchroman-4-yl)carbamate]	9.36	8.47
CC1(C)COc2cc(-c3ccc4c(c3)CCO4)ccc2C1NC(=O)O[C@@H]1CN2CCC1CC2 (stereo partly drawn) [Example 181, (S)-quinuclidin-3-yl (7-(2,3-dihydrobenzofuran-5-yl)-3,3-dimethylchroman-4-yl)carbamate]	9.30	8.26
CC1(C)COc2cc(-c3ccc(OCC4CC4)nc3)ccc2C1NC(=O)O[C@@H]1CN2CCC1CC2 (stereo partly drawn) [Example 182, (S)-quinuclidin-3-yl (7-(6-(cyclopropylmethoxy)pyridin-3-yl)-3,3-dimethylchroman-4-yl)carbamate]	9.60	9.10
CC1(C)COc2cc(-c3cc4ccccc4o3)ccc2C1NC(=O)O[C@@H]1CN2CCC1CC2 (stereo partly drawn) [Example 183, (S)-quinuclidin-3-yl (7-(benzofuran-2-yl)-3,3-dimethylchroman-4-yl)carbamate]	8.91	8.19

Reference: patent US12673944B2, “Compounds having inhibitory activity against glucosylceramide synthase or pharmaceutically acceptable salt thereof, processes for preparing the same, and pharmaceutical compositions comprising the same” (YUHAN CORPORATION, priority 2019, dated 2026)
